# According to patent publication US10189794B2, “Heteroaryl compounds and uses thereof” (Celgene CAR LLC, priority 2013, dated 2019):
# Where two headings read alike, the source gives them in different places.
# Experiments:
# FGFR4-WT = FGFR4-WT (Homo sapiens (Human), UniProt P22455); assay: Omnia assay for potency assessment against FGFR4 enzyme; format: biochemical
# Protocol: A 10× stock solution of FGFR4-WT (PR4380C), (from Invitrogen, Carlsbad, Calif.) corresponding to method a in Table 7, was prepared as described below. Alternatively, a 10× stock solution of FGFR4-WT (F01-11G), (SignalChem, Richmond, BC) corresponding to method b in Table 7, was prepared as described below. A solution of 1.4×ATP (AS001A) and 5×Tyr-Sox conjugated peptide substrate (KNZ3101) were prepared in IX kinase reaction buffer consisting of 20 mM Tris, pH 7.5, 5 mM MgCl2, 1 mM EGTA, 5 mM β-glycerophosphate, 5% glycerol (10× stock, KB002A) and 0.2 mM DTT (DS001A). […] The serially diluted compounds were prepared on a Tecan EVO100. A second addition of 10 μl of Tyr-Sox FGFR4 substrate was added to each well and the kinase reactions were started with the addition of 35 μL of 1.4×ATP. The reactions were monitored every 71 seconds for 240 minutes at λex360/λem485 in a Synergy plate reader from BioTek (Winooski, Vt.).
# MDA-MB-453 cells = assay: Cell proliferation, MDA-MB-453 (CellTiter Glo); format: cell-based; settings: Homo sapiens; MDA-MB-453; 96 hr; read-out: Cell Proliferation GI50 (nM) MDA
# Protocol: For both MDA-MB-453 and Huh7 cells the starting density was 5000 cells per well. The cells were allowed to settle down for 4 hr and were then treated with 5, 1.25, 0.31, 0.078, 0.020 or 0.005 μM of test compound for: 96 hr for MDA-MB-453 and 120 hr for Huh7 cells. Cell viability was determined by CellTiter Glo (Promega, Madison, Wis.) and the results were converted to cell numbers using a standard curve. The growth inhibition (GI50) values were determined by Graph Pad Prism.
# The results of these experiments show the ability of compounds to inhibit cell growth in FGFR dependant cell lines and are depicted in Table 8, in the columns titled “Cell Proliferation GI50 (nM)”. MDA-MB-453 cell results fall under the heading “MDA” and Huh7 cell results fall under the heading “Huh.”
# Huh7 cells = assay: Cell proliferation, Huh7 (CellTiter Glo); format: cell-based; settings: Homo sapiens, Huh-7; Huh7; 120 hr; read-out: Cell Proliferation GI50 (nM) HUH
# Protocol: The growth inhibition (GI50) values were determined by Graph Pad Prism.
# [1] = biological target: FGFR4 in MDA-MB-453 cells (Homo sapiens (Human), UniProt P22455, Y367C); assay: Target occupancy assay with biotinylated covalent probe I-127; format: cell-based; settings: MDA-MB-453 lysate; 2 μM biotinylated probe I-127
# Protocol: In order to assess free FGFR4 protein a biotinylated covalent probe was utilized. […] The reaction was incubated for 2 hr at room temperature. The samples and probe mixture were transferred to a FGFR4-coated MSD plate for 2 hr at room temperature. MSD signals were obtained with an anti-streptavidin Sulfo-tag (Meso Scale) antibody for 1 hr at room temperature.
# If a compound completely (100%) covalently modies FGFR4 no free FGFR4 should be available for covalent modification by the biotinylated probe and subsequent binding to streptavidin and detection.
# pFGFR4 in Huh7 cells = pFGFR4 in Huh7 cells (Homo sapiens (Human), UniProt P22455); assay: FGFR4 signaling (phospho-FGFR4) in Huh7 cells, MSD; format: cell-based; settings: Meso Scale assay (MSD), 1 hr treatment, read-out: Signaling EC50 (nM) pFGFR4 (Huh)
# [2] = biological target: pFGFR4 in MDA-MB-453 cells (Homo sapiens (Human), UniProt P22455, Y367C); assay: FGFR4 signaling (phospho-FGFR4) in MDA-MB-453 cells; format: cell-based; settings: 1 hr treatment
# Protocol: Huh7 cells were grown in DMEM (Invitrogen, Carlsbad, Calif.) supplemented with 10% FBS (Invitrogen) and 1% Penicillin-Streptomycin (P/S, Lonza, Walkersville, Md.).
# For the MSD and ELISA assays, total FGFR4 antibodies were obtained from R&D Systems (Minneapolis, Minn.) and used at 1:500. For the immunoblotting (Western blotting) assay, total FGFR4 antibody was obtained from Santa Cruz (Santa Cruz, Calif.) and used at 1:1000. Phospho-FGFR antibodies were obtained from Cell Signaling (Danvers, Mass.) or R&D Systems and used at 1:1000. The phopho-FGFR antibody from Cell Signaling was used for immunoblotting, whereas the phopho-FGFR antibody from R&D was used for MSD and ELISA assays. Secondary antibodies were used at 1:10,000. The goat anti-mouse IgG IRDye 800CW antibody was obtained from LiCor Biosciences (Lincoln, Nebr.) and the goat anti-rabbit IgG Alexa Fluor 680 was obtained from Invitrogen. The anti-rabbit Sulfo-tag and anti-streptavidin Sulfo-tag antibodies was obtained from Meso Scale Discovery (Gaithersburg, Md.), and were used at 1:1000 and 1:5000, respectively.
# For MDA-MB-453 cells signaling, cells were grown in 96-well poly-D-lysine plates (BD Bioscience, San Jose, Calif.) to 90% confluence, and were then incubated in low-serum (0.1% FBS) media for 16-18 hr. […] After treatment, the cells were washed with cold PBS (Invitrogen) and were immediately lysed by freeze/thawing 3× in 32 μL of cold Cell Extraction Buffer (Invitrogen) which was supplemented with Complete Protease inhibitors (Roche, Indianapolis, Ind.) and PhosphoSTOP (Roche) phosphatase inhibitors.
# Phospho-protein signals were quantitated using Odyssey Infrared Imaging (Li-Cor Biosciences).
# To assess phospho-FGFR signaling, the blots were probed with anti-Phospho-FGFR (Y653/Y654) and total anti-FGFR antibodies. The phospho-FGFR signal was normalized to total FGFR expression for each sample. […] The normalized data was fitted using a sigmoidal curve analysis program (Graph Pad Prism version 5) with variable Hill slope to determine the EC50 values.
# After treatment, the cells were washed with cold PBS (Invitrogen), and were immediately lysed by freeze/thawing 3× in 32 μL of cold Cell Extraction Buffer (Invitrogen), which was supplemented with Complete Protease inhibitors (Roche) and PhosphoSTOP (Roche) phosphatase inhibitors.
# MSD plates (Meso Scale Discovery) were coated with total FGFR-4 antibodies overnight at 4° C. A lysate (25 μL) was added to the MSD plate overnight at 4° C. The MSD signals were obtained by incubating with a phospho-FGFR antibody (R&D Systems) and an anti-rabbit sulfo-tag antibody (Meso Scale), for 2 hr at room temperature. […] The data was fitted using a sigmoidal curve analysis program (Graph Pad Prism version 5) with variable Hill slope to determine the EC50 values.
# MDA-MB-453 cells were grown in 96-well poly-D-lysine plates (BD Bioscience, San Jose, Calif.) to 90% confluence. The cells were then incubated in low-serum (0.1% FBS) media for 16-18 hr. […] After treatment, the MDA-MB-453 cells were washed with cold PBS (Invitrogen) and were immediately lysed by freeze/thawing 3× in 32 μL of cold Cell Extraction Buffer (Invitrogen), which was supplemented with Complete Protease inhibitors (Roche) and PhosphoSTOP (Roche) phosphatase inhibitors.
# Nunc-immuno plates (96-well; Sigma, St. Louis, Mo.) were coated with total FGFR-4 antibodies overnight at 4° C. A lysate (25 μL) was added to the plate for 2 hr at room temperature. A phospho-FGFR detection antibody (100 μL) was added per well for 2 hr at room temperature, followed by a goat anti-rabbit HRP antibody (100 μL) for 45 min. […] The data was fitted using a sigmoidal curve analysis program (Graph Pad Prism version 5) with variable Hill slope to determine the EC50 values.
# [3] = method a: Invitrogen FGFR4-WT 10 nM, ATP 300 uM, Y10-Sox 10 uM, read-out: FGFR4 IC50
# [4] = Method A immunoblotting (Western blotting)
# Chain of FGFR4 in MDA-MB-453 cells (P22455 22-802 Y367C): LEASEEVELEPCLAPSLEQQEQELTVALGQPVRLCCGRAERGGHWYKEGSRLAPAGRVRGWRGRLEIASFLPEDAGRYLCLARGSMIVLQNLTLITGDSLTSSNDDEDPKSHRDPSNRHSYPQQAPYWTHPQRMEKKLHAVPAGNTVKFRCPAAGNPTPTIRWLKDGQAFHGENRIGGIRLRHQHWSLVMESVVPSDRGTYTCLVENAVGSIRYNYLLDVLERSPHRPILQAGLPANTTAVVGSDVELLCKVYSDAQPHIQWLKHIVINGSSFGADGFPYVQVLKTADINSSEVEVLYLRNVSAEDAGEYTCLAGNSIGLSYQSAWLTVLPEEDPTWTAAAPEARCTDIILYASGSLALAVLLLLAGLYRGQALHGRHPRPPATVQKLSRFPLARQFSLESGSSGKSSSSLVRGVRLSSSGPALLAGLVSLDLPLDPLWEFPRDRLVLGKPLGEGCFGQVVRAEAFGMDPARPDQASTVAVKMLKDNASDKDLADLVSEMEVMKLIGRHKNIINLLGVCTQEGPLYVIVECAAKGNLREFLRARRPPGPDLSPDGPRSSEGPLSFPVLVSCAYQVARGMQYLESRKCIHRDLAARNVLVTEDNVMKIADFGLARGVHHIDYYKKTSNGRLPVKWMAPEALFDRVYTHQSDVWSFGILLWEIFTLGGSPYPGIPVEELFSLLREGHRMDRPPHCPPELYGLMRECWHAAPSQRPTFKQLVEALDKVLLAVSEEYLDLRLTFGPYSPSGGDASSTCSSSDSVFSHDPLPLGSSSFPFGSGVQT
# Chain of pFGFR4 in MDA-MB-453 cells (P22455 22-802 Y367C): as above
# Chain of pFGFR4 in Huh7 cells (P22455 22-802): as the sequence (P22455 22-802 Y367C) above, with C346Y counted along it
# Chain of FGFR4-WT (P22455 22-802): as the sequence (P22455 22-802 Y367C) above, with C346Y counted along it
SMILES,IC50 (FGFR4-WT; [3]) [nM],GI50 (MDA-MB-453 cells) [nM],GI50 (Huh7 cells) [nM],EC50 [1] [nM],EC50 (pFGFR4 in Huh7 cells) [nM],IC50 (FGFR4-WT) [nM],"EC50 [2, 4] [nM]",IC50 (FGFR4-WT; read-out: FGFR4 IC50) [nM],EC50 ([2]; Method C ELISA) [nM]
C=CC(=O)NC1CCCCC1Nc1ncc2c(n1)N(Cc1cccnc1)C(=O)N(c1c(Cl)c(OC)cc(OC)c1Cl)C2 (racemic) [I-35],< 100,101 to 500,501 to 999,101 to 500,–,–,–,–,–
C=CC(=O)NC1CCCCC1Nc1ncc2c(n1)N(CC#N)C(=O)N(c1c(Cl)c(OC)cc(OC)c1Cl)C2 (racemic) [I-47],< 100,–,> 1000,–,501 to 999,–,–,–,–
C=CC(=O)NC1CCCCC1Nc1ncc2c(n1)N(CCOC)C(=O)N(c1c(Cl)c(OC)cc(OC)c1Cl)C2 (racemic) [I-61],< 100,101 to 500,501 to 999,101 to 500,101 to 500,–,–,–,–
C=CC(=O)NC1CCCCC1Nc1ncc2c(n1)N(Cc1ccccc1)C(=O)N(c1c(Cl)c(OC)cc(OC)c1Cl)C2 (racemic) [I-63],–,101 to 500,101 to 500,101 to 500,–,< 100,–,–,–
C=CC(=O)NC1CCCCC1Nc1ncc2c(n1)N(C1CC1)C(=O)N(c1c(Cl)c(OC)cc(OC)c1Cl)C2 (racemic) [I-68],101 to 500,> 1000,> 1000,–,501 to 999,–,–,–,–
C=CC(=O)NC1CCCCC1Nc1ncc2c(n1)N(C)C(=O)N(c1cc(OC)cc(OC)c1Cl)C2 (racemic) [I-76],501 to 999,–,> 1000,–,> 1000,–,–,–,–
C=CC(=O)NC1CCCCC1Nc1ncc2c(n1)N(CC(F)F)C(=O)N(c1c(Cl)c(OC)cc(OC)c1Cl)C2 (racemic) [I-105],101 to 500,–,501 to 999,–,101 to 500,–,–,–,–
C=CC(=O)NC1CCCCC1Nc1ncc2c(n1)N(CC(F)F)C(=O)N(c1cc(OC)cc(OC)c1Cl)C2 (racemic) [I-107],> 1000,–,> 1000,–,> 1000,–,–,–,–
C=CC(=O)NC1CCCCC1Nc1ncc2c(n1)N(CCF)C(=O)N(c1cc(OC)cc(OC)c1Cl)C2 (racemic) [I-111],501 to 999,–,> 1000,–,> 1000,–,–,–,–
C=CC(=O)Nc1ccccc1Nc1ncc2c(n1)N(C)C(=O)N(c1c(Cl)c(OC)cc(OC)c1Cl)C2 [I-2],–,< 100,101 to 500,–,–,–,< 100,–,–
C=CC(=O)Nc1cc(N(C)CCOC)ccc1Nc1ncc2c(n1)N(C)C(=O)N(c1cc(OC)cc(OC)c1)C2 [I-21],–,101 to 500,501 to 999,101 to 500,–,–,–,–,–
C=CC(=O)Nc1ccccc1Nc1ncc2c(n1)N(Cc1ccc(F)cc1)C(=O)N(c1c(Cl)c(OC)cc(OC)c1Cl)C2 [I-25],–,< 100,501 to 999,101 to 500,–,–,–,–,–
C=CC(=O)Nc1ccccc1Nc1ncc2c(n1)N(Cc1cccc(N)c1)C(=O)N(c1c(Cl)c(OC)cc(OC)c1Cl)C2 [I-26],–,< 100,< 100,< 100,–,–,–,–,–
C=CC(=O)Nc1ccccc1Nc1ncc2c(n1)N(Cc1cccnc1)C(=O)N(c1cc(OC)cc(OC)c1)C2 [I-44],–,101 to 500,> 1000,101 to 500,–,–,–,–,–
C=CC(=O)Nc1cc(N2CCN(C(C)=O)CC2)ccc1Nc1ccc2c(c1)N(C)C(=O)N(c1cc(OC)cc(OC)c1)C2 [I-55],< 100,101 to 500,101 to 500,101 to 500,–,–,–,–,–
C=CC(=O)Nc1ccccc1Nc1ncc2c(n1)N(CCOC)C(=O)N(c1cc(OC)cc(OC)c1)C2 [I-59],–,501 to 999,> 1000,101 to 500,–,–,–,–,–
C=CC(=O)N[C@H]1CCCC[C@H]1Nc1ncc2c(n1)N(Cc1cscn1)C(=O)N(c1c(Cl)c(OC)cc(OC)c1Cl)C2 [I-114],–,101 to 500,101 to 500,101 to 500,–,–,–,< 100,–
C=CC(=O)NC1COCC1Nc1ncc2c(n1)N(C)C(=O)N(c1c(Cl)c(OC)cc(OC)c1Cl)C2 (centres unmarked) [I-126],–,< 100,101 to 500,< 100,–,–,–,–,–
C=CC(=O)NCc1ccccc1Nc1ncc2c(n1)N(Cc1cccc(NC(=O)CC)c1)C(=O)N(c1c(Cl)c(OC)cc(OC)c1Cl)C2 [I-179],–,101 to 500,101 to 500,–,–,–,< 100,–,–
C=CC(=O)Nc1ccccc1CNc1ncc2c(n1)N(Cc1cccc(NC(=O)CC)c1)C(=O)N(c1c(Cl)c(OC)cc(OC)c1Cl)C2 [I-180],–,–,–,–,–,–,–,–,< 100
